As a reminder, the EC50 is the concentration at which the effect is half-maximal.

The structures appear in SMILES notation. Bounds are passed on as bounds.

What all share (format): cell-based
Test [1] has as its system HIV-1NL4-3 Wild Type. Description: Luminescence reduction assay, MT4 cells infected with HIV-1NL4-3 luciferase reporter virus, wild type. Particulars: Human immunodeficiency virus 1, MT4, MT4 cells, 2% FCS. The source says:
(§1) For this assay, HIV-1NL4-3 reporter viruses are used, which carry the luciferase164 gene (lu164) instead of the nef gene. The viruses are generated by transfection of 293T cells with the corresponding proviral pNL4-3 plasmid (Lipofectamine Reagent, Invitrogen, Karlsruhe, Germany). Starting from the proviral plasmid-DNA, viruses with defined resistance mutations in the reverse transcriptase gene are produced with the “QuikChange II XL Site-Directed Mutagenesis Kit” (Stratagene, Cedar Creek, Tex., USA). Among other things, the following mutations are generated: A98G, A98G-K103N-V108I, A98S, F227C, F227L, G190A, G190S, K101E, K101Q-K103N, K103N, K103N-F227L, K103N-G190A, K103N-G190S, K103N-M230L, K103N-N348I, K103N-P225H, K103N-V108I, K103N-V108I-P225H, K103N-V179F-Y181C, K103N-Y181C, K103N-Y181C-G190A, L100I, L100I-K103N, L100I-K103N-V179I-Y181C, L100I-K103N-Y181C, L234I, N348I, P225H, P236L, V106A, V106A-E138K, V106A-F227C, V106A-F227L, V106I, V106I-Y188L, V106M, V108I, V179F-Y181C, V179I, V179I-Y181C, Y181C, Y181C-G190A, Y181C-M230L, Y181I, Y188L. MT4 cells infected with these reporter viruses (NIH AIDS Research and Reference Reagent Program) secrete luciferase into the medium, which makes possible the luminometric quantification of the virus replication.
(§2) For the batch of a 96-well MTP, 3 million MT4 cells are pelletized, suspended in 1 ml of RPMI 1640 medium without phenol red (Invitrogen, Karlsruhe, Germany)/10% FCS/2 mmol of L-glutamine/1% Pen/Strep (Invitrogen, Karlsruhe, Germany), and incubated together with a suitable amount of the corresponding HIV-1NL4-3 reporter virus for 2 hours at 37° C. (pellet infection). Non-adsorbed viruses are then washed out with PBS, the infected cells are pelletized again, and suspended in 8 ml of RPM 11640 medium without phenol red/2% or 10% FCS/2 mmol of L-glutamine/1% Pen/Strep. Therefrom, 80 μl per well is pipetted into a white 96-well MTP in 20 μl of test substance in a suitable dilution. In order to avoid boundary effects, the edge wells of the MTP are not used for substance dilutions. The second vertical row of the MTP contains only infected cells (virus control), and the eleventh vertical row contains only non-infected cells (cell control) in each case in RPMI 1640 medium without phenol red/2% or 10% FCS/2 mmol of L-glutamine/1% Pen/Strep. The other wells of the MTP contain the compounds according to the invention in different concentrations starting from the third vertical row, from which dilution of the test substances is carried out 3^7 times in three steps up to the tenth vertical row. The test substances are dissolved in DMSO, whereby the DMSO final concentration in the test batch is ultimately 1%. The test batches are incubated for 5 days at 37° C./5% CO2, and are luminometrically evaluated after the addition of 15 μl of Lu164-buffer (65 mmol of NaCl, 300 mmol of MES, pH 5.8, 5 mmol of glutathione and 1:200 coelenterazine (5 mg/ml in 30 μM of glutathione/DMSO) (P.J.K. GmbH, Kleinblittersdorf, Germany)). In the virus control, the resulting values are in the range of 1 million RLUs (relative light units), and in the cell control, the resulting values are 300 to 400 RLUs. The EC50 values of the test substances are determined as the concentration of the treated infected cells, in which the virus replication measured in RLUs is 50% of the untreated infected cells.

Test [2] deals with HIV-1NL4-3 K103N-Y181C. Put plainly: Luminescence reduction assay, MT4 cells infected with HIV-1NL4-3 luciferase reporter virus, RT mutant K103N-Y181C. Particulars: Human immunodeficiency virus 1, MT4, read-out: EC50 (μM) MT4 Cells HIV-1NL4-3 K103N-Y181C 2% FCS, MT4 cells, HIV-1NL4-3 K103N-Y181C, 2% FCS.
Excerpt: as §1, §2
Background: A reporter such as luciferase makes a cellular process visible.

Test [3] has as its system HIV-1LAI Wild Type. Put plainly: AlamarBlue viability assay, HIV-1LAI-infected MT4 cells. The settings on record: Human immunodeficiency virus 1, MT4, MT4 cells, 10% FCS. On the procedure: For the batch of a 96-well MTP, 3 million PBLs are pelletized, suspended in 1 ml of RPMI 1640 medium/10% FCS/2 mmol of L-glutamine/1% Pen/Strep, and incubated together with a suitable amount of HIV-1LA1 (NIH AIDS Research & Reference Reagent Program, Germantown, USA) for 2 hours at 37° C. (pellet infection). Non-adsorbed viruses are then washed out with PBS, the infected cells are pelletized again, and suspended in 18 ml of RPMI 1640 medium/10% FCS/2 mmol of L-glutamine/1% Pen/Strep/interleukin-2 (40 U/ml). Therefrom, 180 μl per well is pipetted into a white 96-well MTP in 20 μl of test substance in a suitable dilution. As an alternative, after preparation of the substance dilutions, the HIV is added by pipetting in the MTP together with the cells and is no longer washed out (supernatant infection). In order to avoid boundary effects, the edge wells of the MTP are not used for substance dilutions. The second vertical row of the MTP contains only infected cells (virus control), and the eleventh vertical row contains only non-infected cells (cell control) in each case in RPMI 1640 medium/10% FCS/2 mmol of L-glutamine/1% Pen/Strep/interleukin-2 (40 U/ml). The other wells of the MTP contain the compounds according to the invention in different concentrations starting from the third vertical row, from which dilution of the test substances is carried out 3^7 times in three steps up to the tenth vertical row. The test substances are dissolved in DMSO, whereby the DMSO final concentration in the test batch is ultimately 1%. The test batches are incubated at 37° C./5% CO2. After 5 and 7 days, in each case 50 μl of cell-free supernatant is drawn off from each well in order to determine the amount of p24 contained by means of p24 ELISA (HIV-1 p24^CA Antigen Capture Assay Kit, NCI-Frederick Cancer Research and Development Center, Frederick, USA). From the resulting values of the photometric analysis (450/620 nm), the EC50 values of the test substances are determined as the concentration of the treated infected cells, in which the amount of p24 is 50% of the untreated infected cells.
As an alternative, MT4 cells are used for testing test substances instead of PBLs. HIV-1LA1-infected MT4 cells (MOI 0.01, supernatant infection) are incubated according to the above-described pattern in RPMI 1640 medium with 2% or 10% FCS/2 mmol of L-glutamine/1% Pen/Strep in the presence of test substances for 5 days at 37° C./5% CO2 (20 μl of substance dilution and 80 μl of cells/virus per well). Then, 10 μl of AlamarBlue (Invitrogen, Karlsruhe, Germany) is added to each well, and MTPs are incubated for 3 hours at 37° C., before the fluorimetric analysis is done (544/590 nm). The resulting values are approximately 30,000 in the case of untreated, non-infected cells, and approximately 6,000 in the case of untreated infected cells. In the low concentration range, the EC50 values of the test substances are determined as the concentration of the treated infected cells, in which the fluorescence is 50% of the untreated non-infected cells (in each case relative to the values of the untreated infected cells). In addition, in the high concentration range, the CC50 values of the test substances are determined as the concentration of the treated infected cells, in which the fluorescence is 50% of the untreated, non-infected cells (in each case relative to the values of the untreated infected cells).
For orientation: The colour change of resazurin is a common sign of viable cells or microbes.

For `O=C(c1cc(-c2cc(Cl)cc(OC(F)(F)F)c2)n(-c2cccnc2)n1)N1CC[S+]([O-])C1` (racemic) [Example 78, {5-[3-Chloro-5-(trifluoromethoxy)phenyl]-1-(pyridin-3-yl)-1H-pyrazol-3-yl}(1-oxido-1,3-thiazolidin-3-yl)methanone], the values for the concentration for a half-maximal effect (EC50) in test [1], in test [2] and in test [3] were 0.078 µM, 0.277 µM and 0.367 µM, respectively.

`O=C1CN(C(=O)c2cc(-c3cc(F)cc(Cl)c3)n(-c3ccccn3)n2)CN1` [Example 1, 1-{[5-(3-Chloro-5-fluorophenyl)-1-(pyridin-2-yl)-1H-pyrazol-3-yl]carbonyl}imidazolidin-4-one]: the values for the EC50 in test [1], in test [2] and in test [3] were 0.345 µM, above 3.3 µM and above 3.3 µM, respectively.

Regarding `O=C1CN(C(=O)c2cc(-c3cc(F)cc(Cl)c3)n(-c3cccc(Cl)n3)n2)CN1` [Example 2, 1-{[5-(3-Chloro-5-fluorophenyl)-1-(6-chloropyridin-2-yl)-1H-pyrazol-3-yl]carbonyl}imidazolidin-4-one], the EC50 is 0.272 µM in test [1], above 3.3 µM in test [2] and above 3.3 µM in test [3].

As to `O=C1CN(C(=O)c2cc(-c3cc(F)cc(Cl)c3)n(-c3cccnc3)n2)CN1` [Example 3, 1-{[5-(3-Chloro-5-fluorophenyl)-1-(pyridin-3-yl)-1H I-pyrazol-3-yl]carbonyl}imidazolidin-4-one], the EC50 amounted to 0.006 µM in test [1], 0.067 µM in test [2] and 0.028 µM in test [3].

Take `O=C1CN(C(=O)c2cc(-c3cc(F)cc(Cl)c3)n(-c3cccnc3)n2)CCN1` [Example 4, 4-{[5-(3-Chloro-5-fluorophenyl)-1-(pyridin-3-yl)-1H-pyrazol-3-yl]carbonyl}piperazin-2-one]: the concentration for a half-maximal effect (EC50) in test [1] came to 0.036 µM; in test [2] it was 0.132 µM; in test [3] it was 0.108 µM.

`O=C(c1cc(-c2cc(F)cc(Cl)c2)n(-c2cccnc2)n1)N1CCSC1` [Example 5, [5-(3-Chloro-5-fluorophenyl)-1-(pyridin-3-yl)-1H-pyrazol-3-yl](1,3-thiazolidin-3-yl)methanone]: the EC50 was found to be 0.023 µM in test [1], 1.32 µM in test [2] and 0.533 µM in test [3].

Turning to `O=C1CN(C(=O)c2cc(-c3cc(F)cc(Cl)c3)n(-c3ccc(Cl)nc3)n2)CN1` [Example 7, 1-{[5-(3-Chloro-5-fluorophenyl)-1-(6-chloropyridin-3-yl)-1H-pyrazol-3-yl]carbonyl}imidazolidin-4-one], the EC50 in test [1] worked out at 0.01 µM; in test [2] it was 0.018 µM; in test [3], 0.064 µM.

Take `O=C1CN(C(=O)c2cc(-c3cc(F)cc(Cl)c3)n(-c3ccc(Cl)nc3)n2)CCN1` [Example 8, 4-{[5-(3-Chloro-5-fluorophenyl)-1-(6-chloropyridin-3-yl)-1H-pyrazol-3-yl]carbonyl}piperazin-2-one]: the EC50 is 0.06 µM in test [1], 0.29 µM in test [2] and 0.205 µM in test [3].

With `O=C1CN(C(=O)c2cc(-c3cc(F)cc(Cl)c3)n(-c3cncc(Cl)c3)n2)CN1` [Example 9, 1-{[5-(3-Chloro-5-fluorophenyl)-1-(5-chloropyridin-3-yl)-1H-pyrazol-3-yl]carbonyl}imidazolidin-4-one], the results for the EC50 in test [1], in test [2] and in test [3] were 0.035 µM, 0.32 µM and 0.149 µM, respectively.

`O=C1CN(C(=O)c2cc(-c3cc(F)cc(Cl)c3)n(-c3cncc(Cl)c3)n2)CCN1` [Example 10]: the EC50 in test [1] is 0.149 µM; in test [2], above 3.3 µM; in test [3], 1.71 µM.

As for `Cc1ccc(-n2nc(C(=O)N3CNC(=O)C3)cc2-c2cc(F)cc(Cl)c2)cn1` [Example 11, 1-{[5-(3-Chloro-5-fluorophenyl)-1-(6-methylpyridin-3-yl)-1H-pyrazol-3-yl]carbonyl}imidazolidin-4-one], the EC50 in test [1] came out at 0.007 µM; in test [2] it was 0.061 µM; in test [3], 0.057 µM.

On to `Nc1ccc(-n2nc(C(=O)N3CNC(=O)C3)cc2-c2cc(F)cc(Cl)c2)cn1` [Example 12, 1-{[1-(6-Aminopyridin-3-yl)-5-(3-chloro-5-fluorophenyl)-1H-pyrazol-3-yl]carbonyl}imidazolidin-4-one], for which the figures for the concentration giving a half-maximal response (EC50) in test [1], in test [2] and in test [3] were 0.189 µM, 0.377 µM and 1.79 µM, respectively.

As to `O=C1CN(C(=O)c2cc(-c3cc(F)cc(Cl)c3)n(-c3ccncc3)n2)CN1` [Example 13, 1-{[5-(3-Chloro-5-fluorophenyl)-1-(pyridin-4-yl)-1H-pyrazol-3-yl]carbonyl}imidazolidin-4-one], the EC50 in test [1] came out at 0.323 µM; in test [2], 0.88 µM; in test [3] it was 1.34 µM.

For the compound `O=C1CN(C(=O)c2cc(-c3cc(F)cc(Cl)c3)n(-c3ccnc(Cl)c3)n2)CN1` [Example 14, 1-{[5-(3-Chloro-5-fluorophenyl)-1-(2-chloropyridin-4-yl)-1H-pyrazol-3-yl]carbonyl}imidazolidin-4-one], the EC50 in test [1] worked out at 0.005 µM; in test [2], 0.067 µM; in test [3], 0.096 µM.

Source of the values: US9296720B2, “Carboxamide-substituted heteroaryl-pyrazoles and the use thereof” (AiCuris GmbH & Co. KG, priority 2011, dated 2016).
